The results in this text go back to US8518942B2, “Caspase inhibitors and uses thereof” (Buck Institute for Research on Aging, priority 2008, dated 2013).

Type in all cases: biochemical
In experiment [1] the target is T1, caspase-2 (Homo sapiens, UniProt P42575).
T1 sequence (P42575 170-325 limits assumed): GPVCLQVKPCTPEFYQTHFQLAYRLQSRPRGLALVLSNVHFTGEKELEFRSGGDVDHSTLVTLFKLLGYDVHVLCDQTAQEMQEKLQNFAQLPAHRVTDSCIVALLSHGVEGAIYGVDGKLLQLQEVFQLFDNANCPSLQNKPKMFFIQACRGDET
T1 sequence (P42575 348-452 limits assumed): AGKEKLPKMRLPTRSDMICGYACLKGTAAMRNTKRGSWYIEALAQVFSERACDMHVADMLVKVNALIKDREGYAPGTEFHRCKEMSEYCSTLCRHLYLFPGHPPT
Nature of the experiment: Blots of full-length huntingtin (23Q & 148Q) treated with caspase-2 plus inhibitor. The following applies: for Caspase-2 cleavage of Htt: conclusion; for Inhibition of caspase-2 cleavage of full-length huntingtin (blot): 23Q & 148Q, at the higher concentration of 10 μM.

The target in experiment [2] is T2, caspase-9 (Homo sapiens, UniProt P55211).
T2 construct: gift: Guy Salvesen's laboratory, Burnham Institute (La Jolla, Calif.)
T2 sequence (P55211 1-315 limits assumed): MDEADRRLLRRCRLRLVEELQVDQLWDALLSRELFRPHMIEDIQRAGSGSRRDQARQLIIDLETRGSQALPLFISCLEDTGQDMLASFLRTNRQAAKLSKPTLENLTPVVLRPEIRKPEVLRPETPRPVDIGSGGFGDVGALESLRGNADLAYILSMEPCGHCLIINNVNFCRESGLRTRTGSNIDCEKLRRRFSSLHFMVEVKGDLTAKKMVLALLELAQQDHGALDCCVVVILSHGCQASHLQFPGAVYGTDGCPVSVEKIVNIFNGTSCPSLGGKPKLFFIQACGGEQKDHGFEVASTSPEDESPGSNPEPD
T2 sequence (P55211 331-416 limits assumed): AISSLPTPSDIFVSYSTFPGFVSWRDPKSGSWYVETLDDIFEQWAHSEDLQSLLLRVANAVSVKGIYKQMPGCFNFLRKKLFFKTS
The experiment can be described thus: Irreversible inhibitor kinetic assay (progress curve), caspase-9, substrate Ac-LEHD-AFC. The following applies: casp-9; duplicate, SD included. An excerpt:
Caspases-3, -6, -7, -8, and -9 were provided by Guy Salvesen's laboratory at the Burnham Institute (La Jolla, Calif.). Caspase-1 was purchased from EMD Biosciences (San Diego, Calif.) and Caspase-2 was purchased from Biomol International (Plymouth Meeting, Pa.). Caspase substrates Ac-DEVD-AMC, Ac-VDVAD-AFC, and Ac-LEHD-AFC were purchased from EMD Biosciences (San Diego, Calif.) and Ac-VDVAD-AMC was purchased from Biomol International (Plymouth Meeting, Pa.). The proteolytic cleavage of N-acyl aminocoumarins by caspases was conducted in Dynatech Microfluor fluorescence 96-well microtiter plates, and readings were taken on a Molecular Devices Spectra Max Gemini XS instrument. The excitation wavelength was 370 nm and the emission wavelength was 455 nm for AMCA substrates, the excitation wavelength was 355 nm and the emission wavelength was 450 nm for peptidyl AMC substrates, and the excitation wavelength was 430 nm and the emission wavelength was 535 nm for peptidyl AFC substrates.
The kinact/Ki for inhibitors were determined under pseudo-first order conditions using the progress curve method (Eckici et al. (2006) J. Med. Chem., 49: 5728-5749; Bieth (1995) Meth. Enzymol., 248: 59-84). Assay wells contained a mixture of inhibitor and AMC or AFC substrate in buffer. Aliquots of caspase were added to each well to initiate the assay. Hydrolysis of the AMC or AFC substrate was monitored fluorometrically for 45 min. To determine the inhibition parameters, time points for which the control ([I]=0) was linear were used. For each inhibitor, a kobs was calculated for at least four different concentrations of inhibitors via a nonlinear regression of the data according to the equation P=(vi/kobs)[1−exp(−kobst) (where product formation=P, […], and the first-order rate constant=kobs). If kobs varied linearly with [I], then the association constant kass was determined by linear regression analysis using kobs=(kass[I])/(1+[S]/Km) where [S] is the concentration of the substrate. […] Inhibition was measured in duplicate and the average of is reported. […]

Experiment [3] addresses T3, Caspase 3 (Homo sapiens, UniProt P42574).
T3 sequence (P42574 29-175 limits assumed): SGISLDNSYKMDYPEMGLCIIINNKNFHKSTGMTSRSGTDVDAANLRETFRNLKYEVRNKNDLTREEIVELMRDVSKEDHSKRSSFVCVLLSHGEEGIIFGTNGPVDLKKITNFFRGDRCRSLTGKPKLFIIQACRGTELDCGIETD
T3 sequence (P42574 176-277 limits assumed): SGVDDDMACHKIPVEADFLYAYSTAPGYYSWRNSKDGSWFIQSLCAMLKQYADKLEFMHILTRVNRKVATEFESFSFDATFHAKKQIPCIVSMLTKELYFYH
Nature of the experiment: Blots of full-length huntingtin (23Q & 148Q) treated with Caspase 3 plus inhibitor. The following applies: for Proteolysis of Htt at amino acid 513 (caspase-3 site): 1-100 nM; for Inhibition of Caspase 3 cleavage of full-length huntingtin (blot): 23Q & 148Q, at 0.1 μM, 1.0 μM and 10 μM; for Blocking the cleavage of Htt at amino acid 513 mediated by caspase-3: conclusion.

For the molecule `C[C@@](NC(=O)CCCC(=O)O)(c1cn([C@@H](CC(=O)O)C(=O)COc2c(F)c(F)cc(F)c2F)nn1)C1CCCCC1` [MJL-002i], the “Caspase-2 cleavage of Htt” value in experiment [1] is on record as “do not inhibit”. The kinact/Ki in experiment [2] is listed as 7,550 ± 1,650 s^−1/M^−1. In experiment [3], the “Proteolysis of Htt at amino acid 513 (caspase-3 site)” value (“Proteolysis of Htt” for short) is listed as “blocked”, the “Inhibition of Caspase 3 cleavage of full-length huntingtin (blot)” value (“Inhibition of Caspase 3 cleavage … (blot)” for short) was “inhibition” and the “Blocking the cleavage of Htt at amino acid 513 mediated by caspase-3” value (from here on “Blocking the cleavage of Htt”) is “affective at blocking”.
Regarding `C[C@@](NS(=O)(=O)Cc1ccccc1)(c1cn([C@@H](CC(=O)O)C(=O)COc2c(F)c(F)cc(F)c2F)nn1)C1CCCCC1` [MJL-001i], in experiment [1], the “Inhibition of caspase-2 cleavage of full-length huntingtin (blot)” value was “slight inhibition” and the “Caspase-2 cleavage of Htt” value was “do not inhibit”. The kinact/Ki in experiment [2] is reported as 18,250 ± 4,050 s^−1/M^−1. Further, in experiment [3], the “Proteolysis of Htt” value is on record as “blocked”, the “Inhibition of Caspase 3 cleavage … (blot)” value is “inhibition” and the “Blocking the cleavage of Htt” value was “affective at blocking”.
In the case of `C[C@@](NC(=O)Cc1ccccc1)(c1cn([C@@H](CC(=O)O)C(=O)COc2c(F)c(F)cc(F)c2F)nn1)C1CCCCC1` [MJL-003i], in experiment [1], the “Inhibition of caspase-2 cleavage of full-length huntingtin (blot)” value was “slight inhibition” and the “Caspase-2 cleavage of Htt” value is given as “do not inhibit”. Also, the kinact/Ki in experiment [2] is given as 28,100 ± 2,500 s^−1/M^−1. Also, in experiment [3], the “Proteolysis of Htt” value is reported as “blocked”, the “Inhibition of Caspase 3 cleavage … (blot)” value is recorded as “inhibition” and the “Blocking the cleavage of Htt” value is listed as “affective at blocking”.
